Results published in publication PMC3767324, “Synthesis, Characterization, and BSA Binding Studies of Some New Benzamides Related to Schiff Base” (ISRN Organic Chemistry, 2013).
≈ marks a conversion by molar mass, not a printed value. Read-outs that look alike come from different tables or passages of the source. Values belong to the molecule of their own block, whether it stands above or below them.

Legend:
[1] = tested on: A. niger; experiment: agar disc diffusion, zone of inhibition; format: cell-based; details: A. niger, discs 6 mm, test compounds 100 µg/mL in DMSO, standards 10 µg/disc, 28°C 48 h, average of three replicates; for zone of inhibition at 100 µg/mL: Aspergillus niger, read-out: zone of inhibition
Protocol: [The procedure below names another organism; the source lists this organism under the same test.] (§1) The in vitro antimicrobial screening effects of the compounds (3 and 5a–j) were individually tested against a panel of bacteria and fungi including Staphylococcus aureus (NCIM 5021), Bacillus subtilis (NCIM 2999), Pseudomonas aeruginosa (NCIM 5029), Escherichia coli (NCIM 2574), Candida. albicans (NCIM 3471), and Aspergillus flavus (NCIM 524). Microbial strains were cultured overnight at 37°C in nutrient and potato dextrose agar medium. All the pure microbial strains were obtained from National Chemical Laboratory (NCL), Pune, India.
(§2) The antibacterial activity of compounds was determined by agar disc diffusion method. Briefly, a suspension of tested bacterial strains was spread on the nutrient agar medium and potato dextrose agar for fungi. The discs (6 mm in diameter) impregnated with test chemicals each dissolved in concentration (100 μg/mL in DMSO) were placed on the inoculated agar and these plates were kept at 4°C for 2 h. The plate was incubated at 37°C for 24 h in case of bacteria and 48 h at 28°C in case of fungi. streptomycin (10 μg/disc) and fluconazole (10 μg/disc) were used as the standards for antibacterial and antifungal activity, respectively. All the samples were performed in triplicate and the zone of inhibition was measured in millimeters.

[2] = tested on: Aspergillus flavus (NCIM 524); experiment: agar disc diffusion, zone of inhibition; format: cell-based; details: A. flavus, discs 6 mm, test compounds 100 µg/mL in DMSO, standards 10 µg/disc, 28°C 48 h, average of three replicates; for zone of inhibition at 100 µg/mL: Aspergillus flavus, NCIM524, read-out: zone of inhibition
Protocol: as §1, §2

[3] = tested on: A. niger; experiment: minimum inhibitory concentration by dilution method; format: cell-based; details: A. niger, dilution method, average of three replicates
Protocol: [The procedure below names another organism; the source lists this organism under the same test.] as §1
(§3) The minimum inhibitory concentration of the synthesized compounds was determined by dilution method. The compounds were dissolved and then diluted using DMSO; two-fold serial concentrations of the compounds were employed to determine the MIC. In this method, the test concentrations of chemically synthesized compounds were made from 5 to 125 μg/mL.

[4] = tested on: Aspergillus flavus (NCIM 524); experiment: as above; format: cell-based; details: A. flavus, dilution method, average of three replicates
Protocol: as §1, §3

[5] = DPPH free radical scavenging activity; details: DPPH 0.1 mM, absorbance at 517 nm; triplicate, mean ± SD
Protocol: The capacity to scavenge the stable free radical 2,2-diphenyl-1-picrylhydrazyl (DPPH) was monitored according to the Blois method. The test samples (10–100 μL) were mixed with 1 mL of DPPH (0.1 mM) solution and filled up with methanol to a final volume of 4 mL. Absorbance of the resulting solution was measured at 517 nm in a visible spectrophotometer (Model 166, Systronics, India). The free radical scavenging rate of the reaction solution was calculated as a percentage (%) of DPPH decolouration using the equation (1) I(%)=(Ablank−Asample/Ablank)×100, where A blank is the absorbance of the control reaction mixture excluding the test compounds, and A sample is the absorbance of the test compounds. Radical scavenging potential was expressed as IC50 value, which represents the sample concentration at which 50% of the DPPH radicals were scavenged. Tests were carried out in triplicate and the results were expressed as mean values ± standard deviations.
DPPH radical scavenging activity evaluation is a standard assay in antioxidant activity studies and offers a rapid technique for screening the radical scavenging activity of specific compounds [24]. The free radical scavenging activity of newly synthesized compounds was tested by their ability to bleach the stable radical DPPH. The activity was monitored by following the absorption at 517 nm in a visible spectrophotometer. In the presence of any free radical scavenger, this odd electron pairs up and causes the diminishing of absorption band which is proportional to the number of electrons taken up. The activity was studied at different concentrations for each compound. […] Resulting from a color change from purple to yellow the absorbance decreased when the antioxidant molecule can quench DPPH free radical through donation of hydrogen atom or by electron donating to form a stable DPPH molecule.

[6] = tested on: Escherichia coli (NCIM 2574); experiment: agar disc diffusion, zone of inhibition; format: cell-based; details: E. coli, discs 6 mm, test compounds 100 µg/mL in DMSO, standards 10 µg/disc, 37°C 24 h, average of three replicates; for zone of inhibition at 100 µg/mL: Escherichia coli, NCIM2574, read-out: zone of inhibition
Protocol: as §1, §2

[7] = tested on: Pseudomonas aeruginosa (NCIM 5029); experiment: agar disc diffusion, zone of inhibition; format: cell-based; details: P. aeruginosa, discs 6 mm, test compounds 100 µg/mL in DMSO, standards 10 µg/disc, 37°C 24 h, average of three replicates; for zone of inhibition at 100 µg/mL: Pseudomonas aeruginosa, NCIM5029, read-out: zone of inhibition
Protocol: as §1, §2

[8] = tested on: Staphylococcus aureus (NCIM 5021); experiment: agar disc diffusion, zone of inhibition; format: cell-based; details: S. aureus, discs 6 mm, test compounds 100 µg/mL in DMSO, standards 10 µg/disc, 37°C 24 h, average of three replicates; for zone of inhibition at 100 µg/mL: Staphylococcus aureus, NCIM5021, read-out: zone of inhibition
Protocol: as §1, §2

[9] = tested on: Bacillus subtilis (NCIM 2999); experiment: agar disc diffusion, zone of inhibition; format: cell-based; details: B. subtilis, discs 6 mm, test compounds 100 µg/mL in DMSO, standards 10 µg/disc, 37°C 24 h, average of three replicates; for zone of inhibition at 100 µg/mL: Bacillus subtilis, NCIM2999, read-out: zone of inhibition
Protocol: as §1, §2

[10] = superoxide radical scavenging assay (NBT, xanthine-xanthine oxidase system); format: biochemical; details: NBT reduction, pH 7.8, 560 nm, three replicates
Protocol: Superoxide radical scavenging activity was measured as described by Kovala-Demertzi et al., (2004). The assay is based on the reduction of nitroblue tetrazolium (NBT) by superoxide ions generated by the xanthine-xanthine oxidase system (X–XO). The reaction system contained 0.2 mM xanthine and 0.6 mM NBT in 0.1 M phosphate buffer, pH 7.8. The tested compounds were dissolved in methanol. The reaction was started by addition of XO (0.07 U mL^−1), an activity which allowed to yield the absorbance change between 0.03 and 0.04 per minute, at 560 nm. The extent of NBT reduction was followed spectrophotometrically, by measuring the increase of the absorbance at 560 nm. All the experiments were replicated three times. The IC50 of each compound was defined as the concentration which inhibited 50% of the NBT reduction by O2 ^•− produced in the X–XO system.
Superoxide anion radical is normally initially formed, and its effects can be magnified because it produces other kinds of free radicals and oxidizing agents. The enzymatic superoxide anion radical was generated by the xanthine/xanthine oxidase reaction system. The production of superoxide was estimated by the nitroblue tetrazolium method. […] Differently, in the m-position, methoxy and hydroxyl groups act as an electron-withdrawing properties, ([…]), which are possible for providing a destabilizing effect.

[11] = tested on: Escherichia coli (NCIM 2574); experiment: minimum inhibitory concentration by dilution method; format: cell-based; details: E. coli, dilution method, average of three replicates
Protocol: as §1, §3

[12] = tested on: Pseudomonas aeruginosa (NCIM 5029); experiment: as above; format: cell-based; details: P. aeruginosa, dilution method, average of three replicates
Protocol: as §1, §3

[13] = tested on: Staphylococcus aureus (NCIM 5021); experiment: as above; format: cell-based; details: S. aureus, dilution method, average of three replicates
Protocol: as §1, §3

[14] = tested on: Bacillus subtilis (NCIM 2999); experiment: as above; format: cell-based; details: B. subtilis, dilution method, average of three replicates
Protocol: as §1, §3

[15] = Aspergillus niger, read-out: MIC
[16] = Aspergillus flavus, NCIM524, read-out: MIC
[17] = Escherichia coli, NCIM2574, read-out: MIC
[18] = Pseudomonas aeruginosa, NCIM5029, read-out: MIC
[19] = Staphylococcus aureus, NCIM5021, read-out: MIC
[20] = Bacillus subtilis, NCIM2999, read-out: MIC

SMILES: OC(Cn1cncn1)(Cn1cncn1)c1ccc(F)cc1F [Fluconazole, fluconazole, reference compound]
- zone of inhibition at 100 µg/mL [1]: 16 mm
- zone of inhibition at 100 µg/mL [2]: 19 mm
- MIC [3, 15]: 5 µg/mL (≈ 16.3 µM)
- MIC [4, 16]: 5 µg/mL (≈ 16.3 µM)

SMILES: COc1ccc(O)c(C(C)(C)C)c1 [BHA, butylated hydroxyanisole, reference compound]
- IC50 Superoxide [10]: 13.4 ± 0.29 µg/mL (≈ 74.3 µM)

SMILES: O=C1O[C@H]([C@@H](O)CO)C(O)=C1O [AA, Ascorbic acid, reference compound]
- IC50 DPPH [5]: 12.6 ± 0.43 µg/mL (≈ 71.5 µM)

SMILES: [H]/N=C(/N)N[C@H]1[C@H](O)[C@@H](O)[C@H](O[C@@H]2O[C@@H](C)[C@](O)(C=O)[C@H]2O[C@@H]2O[C@@H](CO)[C@H](O)[C@@H](O)[C@@H]2NC)[C@@H](N/C(N)=N\[H])[C@@H]1O [Streptomycin, streptomycin, reference compound]
- zone of inhibition at 100 µg/mL [6]: 16.5 mm
- zone of inhibition at 100 µg/mL [7]: 14 mm
- zone of inhibition at 100 µg/mL [8]: 14.1 mm
- zone of inhibition at 100 µg/mL [9]: 13.4 mm
- MIC [11, 17]: 5 µg/mL (≈ 8.6 µM)
- MIC [12, 18]: 5 µg/mL (≈ 8.6 µM)
- MIC [13, 19]: 5 µg/mL (≈ 8.6 µM)
- MIC [14, 20]: 5 µg/mL (≈ 8.6 µM)

SMILES: CC(=O)Nc1ccc(N=Cc2cc3ccccc3o2)cc1 [Compound 3, N-(4-((benzofuran-2-ylmethylene)amino)phenyl)acetamide]
- IC50 DPPH [5]: 95.3 ± 0.76 µg/mL (≈ 342 µM)
- zone of inhibition at 100 µg/mL [6]: 11 mm
- zone of inhibition at 100 µg/mL [1]: 12.4 mm
- zone of inhibition at 100 µg/mL [7]: 10 mm
- zone of inhibition at 100 µg/mL [8]: 8 mm
- zone of inhibition at 100 µg/mL [2]: 12.5 mm
- zone of inhibition at 100 µg/mL [9]: 7 mm
- IC50 Superoxide [10]: 85.1 ± 0.33 µg/mL (≈ 306 µM)
- MIC [11, 17]: > 100 µg/mL
- MIC [3, 15]: 75 µg/mL (≈ 269 µM)
- MIC [12, 18]: > 100 µg/mL
- MIC [13, 19]: 75 µg/mL (≈ 269 µM)
- MIC [4, 16]: 75 µg/mL (≈ 269 µM)
- MIC [14, 20]: 75 µg/mL (≈ 269 µM)

The next lines start with results.

- IC50 DPPH [5]: 87.4 ± 0.31 µg/mL (≈ 204 µM)
- IC50 Superoxide [10]: 79.2 ± 0.24 µg/mL (≈ 185 µM)
- MIC [11, 17]: 25 µg/mL (≈ 58.5 µM)
- MIC [3, 15]: 20 µg/mL (≈ 46.8 µM)
- MIC [12, 18]: 25 µg/mL (≈ 58.5 µM)
- MIC [13, 19]: 15 µg/mL (≈ 35.1 µM)
- MIC [4, 16]: 20 µg/mL (≈ 46.8 µM)
- MIC [14, 20]: 15 µg/mL (≈ 35.1 µM)
- melting point: 182 °C
SMILES: CC(=O)N(C(=O)c1ccc([N+](=O)[O-])cc1)c1ccc(N=Cc2cc3ccccc3o2)cc1 [Compound 5e, N-acetyl-N-(4-((benzofuran-2-ylmethylene)amino)phenyl)-4-nitrobenzamide]
- zone of inhibition at 100 µg/mL [6]: 9 mm
- zone of inhibition at 100 µg/mL [1]: 14.1 mm
- zone of inhibition at 100 µg/mL [7]: 11 mm
- zone of inhibition at 100 µg/mL [8]: 14 mm
- zone of inhibition at 100 µg/mL [2]: 13.6 mm
- zone of inhibition at 100 µg/mL [9]: 11 mm

- IC50 DPPH [5]: 48.9 ± 0.11 µg/mL (≈ 109 µM)
- IC50 Superoxide [10]: 55.3 ± 0.04 µg/mL (≈ 124 µM)
- MIC [11]: 50 µg/mL (≈ 112 µM)
- MIC [3]: 25 µg/mL (≈ 55.9 µM)
- MIC [12]: 50 µg/mL (≈ 112 µM)
- MIC [13]: 30 µg/mL (≈ 67.1 µM)
- MIC [4]: 40 µg/mL (≈ 89.5 µM)
- MIC [14]: 50 µg/mL (≈ 112 µM)
SMILES: CC(=O)N(C(=O)OCc1ccccc1Cl)c1ccc(N=Cc2cc3ccccc3o2)cc1 [Compound 5d, 2-chlorobenzylacetyl(4-((benzofuran-2-ylmethylene)amino)phenyl)carbamate]
- zone of inhibition [6]: 10 mm
- zone of inhibition [1]: 13.7 mm
- zone of inhibition [7]: 13 mm
- zone of inhibition [8]: 12 mm
- zone of inhibition [2]: 11 mm
- zone of inhibition [9]: 14 mm
